The target of assay [1] is T1, BRAFV600E full-length (amino acids 2-766) (Homo sapiens, UniProt P15056, V600E).
T1 construct: His6-tagged BRAFV600E full-length (amino acids 2-766); His6; made in house; host or cells: baculovirus expression system (insect cells)
The experiment in a line: B-Raf Accelerated MEK ATPase assay (BRAMA). It is filed as biochemical. In short, it runs like this: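 Coupled-enzyme readout: ADP generated by MEK-mediated ATP hydrolysis, uncoupled from ERK phosphorylation, is linked to NADH oxidation through pyruvate kinase and lactate dehydrogenase.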

The subject of assay [2] is Human colon tumor cells (Colo205). In words: Cell growth inhibition assay (CellTiter-Glo), Colo205. It is filed as cell-based. The method in brief: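 Growth is estimated from total cellular ATP measured by CellTiter-Glo luminescence after a 3-day compound exposure at 37 °C. Compounds are tested as 1:3 dilution series in 0.2% final DMSO, with inhibition expressed relative to vehicle-treated wells.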

The test system of assay [3] is Human melanoma cancer cells (SK-MEL-28). The experiment in a line: Cell growth inhibition assay (CellTiter-Glo), SK-MEL-28. It is filed as cell-based.
Where [4] appears, read: B-Raf Activity, Table 1a, highest pIC50 for the one or more runs, categorized.
The mark [5] stands for this setting: B-Raf pIC50, Table 1b, later runs, average pIC50 for the one or more runs, categorized.
Setting [6] is: COLO 205, 72 h, Table 2a, 3 days incubation, read-out: Activity in Colo205 Tumor Cells.
Setting [7] is: COLO 205, Table 2b, later runs, average for the one or more runs, categorized, read-out: IC50 for Colo205.
Where [8] appears, read: SK-MEL-28, 72 h, Table 3a, 3 days incubation, read-out: Activity in SK-MEL-28 Tumor Cells.
[9] abbreviates: SK-MEL-28, Table 3b, later runs, average for the one or more runs, categorized, read-out: IC50 for SK-MEL-28.
Setting [10] is: Table 1b, later runs, average pIC50 for the one or more runs, categorized, read-out: B-Raf pIC50 (converted).

Where a name gives a salt, the structure may show the parent alone. Read-outs that look alike come from different tables or passages of the source.

T1 sequence (P15056 2-766 V600E): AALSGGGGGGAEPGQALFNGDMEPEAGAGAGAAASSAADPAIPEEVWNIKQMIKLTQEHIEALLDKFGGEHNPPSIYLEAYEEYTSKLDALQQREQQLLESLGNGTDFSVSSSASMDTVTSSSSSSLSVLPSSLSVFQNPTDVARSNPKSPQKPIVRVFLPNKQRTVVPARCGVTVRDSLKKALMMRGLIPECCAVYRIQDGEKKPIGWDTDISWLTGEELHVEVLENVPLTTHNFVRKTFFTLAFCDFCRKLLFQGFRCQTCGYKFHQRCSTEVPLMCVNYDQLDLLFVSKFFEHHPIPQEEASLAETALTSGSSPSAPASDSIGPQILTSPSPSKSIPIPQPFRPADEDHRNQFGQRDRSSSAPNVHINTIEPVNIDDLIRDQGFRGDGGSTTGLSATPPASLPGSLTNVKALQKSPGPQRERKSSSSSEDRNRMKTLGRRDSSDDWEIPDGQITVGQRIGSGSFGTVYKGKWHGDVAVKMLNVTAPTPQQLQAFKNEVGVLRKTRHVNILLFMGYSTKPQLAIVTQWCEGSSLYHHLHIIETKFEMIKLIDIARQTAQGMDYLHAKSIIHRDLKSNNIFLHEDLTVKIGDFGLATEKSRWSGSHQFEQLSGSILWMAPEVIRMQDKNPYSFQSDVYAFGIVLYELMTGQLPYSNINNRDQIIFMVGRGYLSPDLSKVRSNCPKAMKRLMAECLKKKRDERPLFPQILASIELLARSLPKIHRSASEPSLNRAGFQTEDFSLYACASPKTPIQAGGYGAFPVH

For the compound `CC(C)c1nc(-c2ccc(F)c(NS(=O)(=O)c3c(F)cccc3F)c2)c(-c2ccnc(NCCF)n2)s1` [Example 178], the IC50 is below 100 nM in assay [1] (setting [4]); 31.6 to 1000 nM in assay [1] (setting [5]); 100 to 1000 nM in assay [2] (setting [6]); 100 to 1000 nM in assay [2] (setting [7]); 100 to 1000 nM in assay [3] (setting [8]); 100 to 1000 nM in assay [3] (setting [9]).

`COc1c(NS(=O)(=O)c2c(F)cccc2F)cccc1-c1nc(C(C)C)sc1-c1ccnc(NCC(C)C)n1` [Example 44, 2,6-Difluoro-N-[3-(2-(1-methylethyl)-5-{2-[(2-methylpropyl)amino]-4-pyrimidinyl}-1,3-thiazol-4-yl)-2-(methyloxy)phenyl]benzenesulfonamide]: the IC50 in assay [1] (setting [4]) was below 100 nM; in assay [1] (setting [10]) it was 3.16 to 31.6 nM; in assay [2] (setting [6]) it was above 1000 nM; in assay [2] (setting [7]), 1000 to 10000 nM; in assay [3] (setting [8]) it was above 1000 nM; in assay [3] (setting [9]) it was 1000 to 10000 nM.

Turning to `CC(C)CNc1nccc(-c2sc(C(C)C)nc2-c2cccc(NS(=O)(=O)c3cccnc3)c2F)n1` [Example 42, N-[2-Fluoro-3-(2-(1-methylethyl)-5-{2-[(2-methylpropyl)amino]-4-pyrimidinyl}-1,3-thiazol-4-yl)phenyl]-3-pyridinesulfonamide], the IC50 in assay [1] (setting [4]) is below 100 nM; in assay [1] (setting [5]), at most 3.16 nM; in assay [2] (setting [6]) it was below 100 nM; in assay [2] (setting [7]), below 100 nM; in assay [3] (setting [8]), below 100 nM; in assay [3] (setting [9]), below 100 nM.

For the compound `Cc1nccc(-c2sc(C(C)(C)C)nc2-c2cccc(NS(=O)(=O)c3c(F)cccc3F)c2Cl)n1` [Example 239, N-{2-chloro-3-[2-(1,1-dimethylethyl)-5-(2-methyl-4-pyrimidinyl)-1,3-thiazol-4-yl]phenyl}-2,6-difluorobenzenesulfonamide], the IC50 in assay [1] (setting [10]) is 3.16 to 31.6 nM; in assay [2] (setting [7]), below 100 nM; in assay [3] (setting [9]), below 100 nM.

Turning to `Cn1nccc1S(=O)(=O)Nc1cccc(-c2nc(C(C)(C)C)sc2-c2ccnc(N)n2)c1F` [Example 282, N-{3-[5-(2-amino-4-pyrimidinyl)-2-(1,1-dimethylethyl)-1,3-thiazol-4-yl]-2-fluorophenyl}-1-methyl-1H-pyrazole-5-sulfonamide hydrochloride], the IC50 in assay [1] (setting [5]) is 31.6 to 1000 nM; in assay [2] (setting [7]), 100 to 1000 nM; in assay [3] (setting [9]) it was 1000 to 10000 nM.

For `CC(C)c1nc(-c2ccc(F)c(NS(=O)(=O)c3cc(F)ccc3F)c2)c(-c2ccnc(NC3CC3)n2)s1` [Example 122], the IC50 was below 100 nM in assay [1] (setting [4]); 31.6 to 1000 nM in assay [1] (setting [5]); above 1000 nM in assay [2] (setting [6]); 1000 to 10000 nM in assay [2] (setting [7]); above 1000 nM in assay [3] (setting [8]); 1000 to 10000 nM in assay [3] (setting [9]).

For the compound `CS(=O)(=O)N1CCC(c2nc(-c3cccc(NS(=O)(=O)c4cc(F)ccc4F)c3F)c(-c3ccnc(N)n3)s2)CC1` [Example 101, N-(3-{5-(2-Amino-4-pyrimidinyl)-2-[1-(methylsulfonyl)-4-piperidinyl]-1,3-thiazol-4-yl}-2-fluorophenyl)-2,5-difluorobenzenesulfonamide], the IC50 in assay [1] (setting [4]) is below 100 nM; in assay [1] (setting [5]) it was at most 3.16 nM; in assay [2] (setting [6]), below 100 nM; in assay [2] (setting [7]) it was below 100 nM; in assay [3] (setting [8]), below 100 nM; in assay [3] (setting [9]), below 100 nM.

In the case of `CC(C)c1nc(-c2ccc(F)c(NS(=O)(=O)c3c(F)cccc3F)c2)c(-c2ccnc(NCCN3CCS(=O)(=O)CC3)n2)s1` [Example 175], the IC50 in assay [1] (setting [4]) was below 100 nM; in assay [1] (setting [5]), 31.6 to 1000 nM; in assay [2] (setting [6]) it was 100 to 1000 nM; in assay [2] (setting [7]), 100 to 1000 nM; in assay [3] (setting [8]), 100 to 1000 nM; in assay [3] (setting [9]), 100 to 1000 nM.

Take `CC(C)(C)c1nc(-c2cccc(NS(=O)(=O)c3cc(F)ccc3F)c2F)c(-c2ccnc(NC3CCOCC3)n2)s1` [Example 138]: the IC50 in assay [1] (setting [4]) is below 100 nM; in assay [1] (setting [5]), at most 3.16 nM; in assay [2] (setting [6]) it was below 100 nM; in assay [2] (setting [7]), below 100 nM; in assay [3] (setting [8]), above 1000 nM; in assay [3] (setting [9]), below 100 nM.

`CC(C)(C)c1nc(-c2cccc(NS(=O)(=O)c3cccc(F)c3)c2F)c(-c2ccncn2)s1` [Example 223, N-{3-[2-(1′-dimethylethyl)-5-(4-pyrimidinyl)-1,3-thiazol-4-yl]-2-fluorophenyl}-3-fluorobenzenesulfonamide]: the IC50 is at most 3.16 nM in assay [1] (setting [5]), below 100 nM in assay [2] (setting [7]) and below 100 nM in assay [3] (setting [9]).

For the compound `CC(C)(C)c1nc(-c2cccc(NS(=O)(=O)C3CCCCC3)c2F)c(-c2ccnc(N)n2)s1` [Example 63, N-{3-[5-(2-Amino-4-pyrimidinyl)-2-(1,1-dimethylethyl)-1,3-thiazol-4-yl]-2-fluorophenyl}cyclohexanesulfonamide], the IC50 fell in the range of 100 to 1000 nM in assay [1] (setting [4]); 31.6 to 1000 nM in assay [1] (setting [5]); 100 to 1000 nM in assay [2] (setting [6]); 100 to 1000 nM in assay [2] (setting [7]); 100 to 1000 nM in assay [3] (setting [8]); 100 to 1000 nM in assay [3] (setting [9]).

`CC(C)c1nc(-c2ccc(F)c(NS(=O)(=O)c3c(F)cccc3F)c2)c(-c2ccnc(NCCCCN(C)C)n2)s1` [Example 167]: the IC50 in assay [1] (setting [5]) is 31.6 to 1000 nM; in assay [2] (setting [6]), 100 to 1000 nM; in assay [2] (setting [7]), 100 to 1000 nM; in assay [3] (setting [8]), above 1000 nM; in assay [3] (setting [9]), 1000 to 10000 nM.

With `CC(C)(C)c1nc(-c2cccc(NS(=O)(=O)c3c(F)cccc3F)c2Cl)c(-c2ccnc(N)n2)s1` [Example 236, N-{3-[5-(2-amino-4-pyrimidinyl)-2-(1,1-dimethylethyl)-1,3-thiazol-4-yl]-2-chlorophenyl}-2,6-difluorobenzenesulfonamide], the IC50 in assay [1] (setting [5]) is at most 3.16 nM; in assay [2] (setting [7]), below 100 nM; in assay [3] (setting [9]), below 100 nM.

As for `Nc1nccc(-c2sc(N3CCOCC3)nc2-c2cccc(NS(=O)(=O)C3CCCCC3)c2F)n1` [Example 48, N-{3-[5-(2-Amino-4-pyrimidinyl)-2-(4-morpholinyl)-1,3-thiazol-4-yl]-2-fluorophenyl}cyclohexanesulfonamide], the IC50 in assay [1] (setting [4]) fell in the range of 100 to 1000 nM; in assay [1] (setting [5]), 31.6 to 1000 nM; in assay [2] (setting [6]), 100 to 1000 nM; in assay [2] (setting [7]), 100 to 1000 nM; in assay [3] (setting [8]) it was 100 to 1000 nM; in assay [3] (setting [9]), 100 to 1000 nM.

For `Nc1nccc(-c2sc(C3CCCCC3)nc2-c2cccc(NS(=O)(=O)c3cc(F)ccc3F)c2F)n1` [Example 144], the IC50 in assay [1] (setting [4]) is below 100 nM; in assay [1] (setting [5]) it was at most 3.16 nM; in assay [2] (setting [6]), below 100 nM; in assay [2] (setting [7]) it was below 100 nM; in assay [3] (setting [8]) it was below 100 nM; in assay [3] (setting [9]) it was below 100 nM.

As to `C[C@@H]1CN(c2nc(-c3cccc(NS(=O)(=O)c4cc(F)ccc4F)c3F)c(-c3ccnc(N)n3)s2)C[C@H](C)O1` [Example 103, N-(3-{5-(2-Amino-4-pyrimidinyl)-2-[(2R,6S)-2,6-dimethyl-4-morpholinyl]-1,3-thiazol-4-yl}-2-fluorophenyl)-2,5-difluorobenzenesulfonamide], the IC50 in assay [1] (setting [4]) is below 100 nM; in assay [1] (setting [5]), at most 3.16 nM; in assay [2] (setting [6]) it was below 100 nM; in assay [2] (setting [7]), below 100 nM; in assay [3] (setting [8]), below 100 nM; in assay [3] (setting [9]) it was below 100 nM.

Turning to `Cc1nccc(-c2sc(C(C)(C)C)nc2-c2c(F)ccc(NS(=O)(=O)c3cccc(F)c3)c2F)n1` [Example 220, N-{3-[2-(1,1-dimethylethyl)-5-(2-methyl-4-pyrimidinyl)-1,3-thiazol-4-yl]-2,4-difluorophenyl}-3-fluorobenzenesulfonamide], the results for the IC50 in assay [1] (setting [10]), in assay [2] (setting [7]) and in assay [3] (setting [9]) were 3.16 to 31.6 nM, below 100 nM and below 100 nM, respectively.

For the compound `COc1ccc(F)cc1S(=O)(=O)Nc1cccc(-c2nc(C(C)C)sc2-c2ccnc(NCC(C)C)n2)c1F` [Example 152], the IC50 was below 100 nM in assay [1] (setting [4]); 3.16 to 31.6 nM in assay [1] (setting [10]); below 100 nM in assay [2] (setting [6]); below 100 nM in assay [2] (setting [7]); below 100 nM in assay [3] (setting [8]); below 100 nM in assay [3] (setting [9]).

As for `CCOCCNc1nccc(-c2sc(C(C)(C)C)nc2-c2cccc(NS(=O)(=O)c3cc(F)ccc3F)c2F)n1` [Example 212], the IC50 in assay [1] (setting [4]) is below 100 nM; in assay [1] (setting [5]), at most 3.16 nM; in assay [2] (setting [6]), below 100 nM; in assay [2] (setting [7]), below 100 nM; in assay [3] (setting [8]) it was below 100 nM; in assay [3] (setting [9]), below 100 nM.

On to `Nc1nccc(-c2sc(N3CCOCC3)nc2-c2cccc(NS(=O)(=O)c3cccnc3)c2F)n1` [Example 61, N-{3-[5-(2-Amino-4-pyrimidinyl)-2-(4-morpholinyl)-1,3-thiazol-4-yl]-2-fluorophenyl}-3-pyridinesulfonamide], for which the IC50 in assay [1] (setting [4]) is below 100 nM; in assay [1] (setting [5]), at most 3.16 nM; in assay [2] (setting [6]), 100 to 1000 nM; in assay [2] (setting [7]) it was 100 to 1000 nM; in assay [3] (setting [8]), 100 to 1000 nM; in assay [3] (setting [9]) it was 100 to 1000 nM.

On to `Nc1nccc(-c2sc(N3CCOCC3)nc2-c2cccc(NS(=O)(=O)C3CC3)c2F)n1` [Example 51, N-{3-[5-(2-Amino-4-pyrimidinyl)-2-(4-morpholinyl)-1,3-thiazol-4-yl]-2-fluorophenyl}cyclopropanesulfonamide], for which the IC50 in assay [1] is above 1000 nM; in assay [2] (setting [6]), above 1000 nM; in assay [2] (setting [7]), 1000 to 10000 nM; in assay [3] (setting [8]), above 1000 nM; in assay [3] (setting [9]), 1000 to 10000 nM.

The record behind these values is US7994185B2, “Benzene sulfonamide thiazole and oxazole compounds” (Glaxo Smith Kline LLC, priority 2008, dated 2011).
